Data taken from ChEMBL document CHEMBL1201862, “PubChem BioAssay data set” (2004).
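48-hour exposure; five concentrations; linearly interpolated endpoints. Here, GI50 denotes the concentration required for 50% inhibition of growth.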 Active and inactive are the calls of the source. No stated cut-off is given here; in the data, active = GI50 up to about 1.1 µM and inactive = higher.

Experiments:
Test in all cases: DTP human tumour cell line panel, 48 h
[1] = test system: 786-0
[2] = test system: A549
[3] = test system: COLO 205
[4] = test system: HCT-116
[5] = test system: HL-60
[6] = test system: IGROV-1
[7] = test system: LOX IMVI
[8] = test system: NCI-H23
[9] = test system: NCI-H522
[10] = test system: OVCAR-8
[11] = test system: SF-295
[12] = test system: SK-MEL-28
[13] = test system: SK-MEL-2
[14] = test system: SK-MEL-5
[15] = test system: SW-620
[16] = test system: TK-10
[17] = test system: MDA-MB-231
[18] = test system: MDA-N
[19] = test system: T47D
[20] = test system: PC-3

| Structure (SMILES) | GI50 [1] | GI50 [2] | GI50 [3] | GI50 [4] | GI50 [5] | GI50 [6] | GI50 [7] | GI50 [8] | GI50 [9] | GI50 [10] | GI50 [11] | GI50 [12] | GI50 [13] | GI50 [14] | GI50 [15] | GI50 [16] | GI50 [17] | GI50 [18] | GI50 [19] | GI50 [20] |
| --- | --- | --- | --- | --- | --- | --- | --- | --- | --- | --- | --- | --- | --- | --- | --- | --- | --- | --- | --- | --- |
| CCCC/C(C)=N/NC(N)=S | > 100 µM (inactive) | > 100 µM (inactive) | > 100 µM (inactive) | > 100 µM (inactive) | 14.5 µM (inactive) | > 100 µM (inactive) | > 100 µM (inactive) | > 100 µM (inactive) | > 100 µM (inactive) | > 100 µM (inactive) | > 100 µM (inactive) | > 100 µM (inactive) | > 100 µM (inactive) | > 100 µM (inactive) | > 100 µM (inactive) | > 100 µM (inactive) |  |  |  |  |
| COc1ccc(/C(=N/O)C(c2ccc(OC)cc2)C2C(=O)Oc3ccccc32)cc1 (stereo not given) | > 100 µM (inactive) | 42 µM (inactive) | 1.66 µM (inactive) | 58.6 µM (inactive) | 52.5 µM (inactive) | 40 µM (inactive) | 79.6 µM (inactive) | 40.3 µM (inactive) | 35.6 µM (inactive) | 61.7 µM (inactive) | 3.13 µM (inactive) | 78.2 µM (inactive) | 38.5 µM (inactive) | 24.8 µM (inactive) | > 100 µM (inactive) | > 100 µM (inactive) |  |  |  |  |
| C=C(C)CCC1CC=[N+]([O-])OC1C(C)(C)C (stereo not given) | 96.4 µM (inactive) | 20.9 µM (inactive) | 40.1 µM (inactive) | 21.8 µM (inactive) | 2.65 µM (inactive) | 34.6 µM (inactive) | 18.5 µM (inactive) |  | 24.2 µM (inactive) | 66.5 µM (inactive) | > 100 µM (inactive) |  |  | 32.5 µM (inactive) | 44.5 µM (inactive) | > 100 µM (inactive) | 26.8 µM (inactive) | 42.3 µM (inactive) | 20.7 µM (inactive) |  |
| NCCCn1c2ccccc2c2c3c(c4c(c21)CCC(O)CC4)C(=O)NC3=O (stereo not given) | 2.92 µM (inactive) | 4.86 µM (inactive) |  | 1.88 µM (inactive) | 9.12 µM (inactive) | 9.79 µM (inactive) | 1.01 µM (active) | 2.45 µM (inactive) | 2.44 µM (inactive) | 5.01 µM (inactive) | 3.22 µM (inactive) | 0.92 µM (active) | 10.4 µM (inactive) | 3.31 µM (inactive) | 1.04 µM (active) | 3.57 µM (inactive) | 1.85 µM (inactive) |  |  | 3.48 µM (inactive) |
| COC(=O)CP1(=O)OC2C(C3CCC2(C)C3(C)C)N1c1cc(C(F)(F)F)cc(C(F)(F)F)c1 (stereo not given) | 18.2 µM (inactive) | 30 µM (inactive) | 24 µM (inactive) | 12.6 µM (inactive) |  | 45.7 µM (inactive) | 22.4 µM (inactive) | 26.6 µM (inactive) |  | 36.1 µM (inactive) | 19.7 µM (inactive) | 42.9 µM (inactive) | 20.9 µM (inactive) | 36.3 µM (inactive) | 24.1 µM (inactive) | 24.7 µM (inactive) | 20.6 µM (inactive) |  | 19.1 µM (inactive) | 19.9 µM (inactive) |
| O=C1CC(c2ccsc2)n2cccc21 (stereo not given) | > 100 µM (inactive) | > 100 µM (inactive) | > 100 µM (inactive) | > 100 µM (inactive) | > 100 µM (inactive) | > 100 µM (inactive) |  | > 100 µM (inactive) | > 100 µM (inactive) | > 100 µM (inactive) | > 100 µM (inactive) | > 100 µM (inactive) | > 100 µM (inactive) | > 100 µM (inactive) | > 100 µM (inactive) | > 100 µM (inactive) | > 100 µM (inactive) |  | > 100 µM (inactive) | > 100 µM (inactive) |
| O=C1c2ccccc2-c2ccc(O)cc21 | 36.1 µM (inactive) | 25.9 µM (inactive) | 19.7 µM (inactive) | 45.6 µM (inactive) | 23.2 µM (inactive) | 18.6 µM (inactive) | 40.1 µM (inactive) | 16.9 µM (inactive) | 16.1 µM (inactive) | 20.2 µM (inactive) | 22.9 µM (inactive) | 19.7 µM (inactive) | 21.5 µM (inactive) | 19.4 µM (inactive) | 42.3 µM (inactive) | 24.5 µM (inactive) | 16.9 µM (inactive) |  | 18.4 µM (inactive) | 17.2 µM (inactive) |
| COC(=O)/C(=N/NC(C)(C)C)C(C(=O)OC)C(=O)C(=O)Nc1nc2ccc([N+](=O)[O-])cc2s1 (stereo not given) | > 100 µM (inactive) | > 100 µM (inactive) | > 100 µM (inactive) | > 100 µM (inactive) | > 100 µM (inactive) | > 100 µM (inactive) | > 100 µM (inactive) | > 100 µM (inactive) | > 100 µM (inactive) | > 100 µM (inactive) | > 100 µM (inactive) | > 100 µM (inactive) | > 100 µM (inactive) | > 100 µM (inactive) | > 100 µM (inactive) | > 100 µM (inactive) |  |  |  |  |
